Assay results as given in PubChem BioAssay AID1963870 (Molecular Pharmacology Branch, DTP, NCI, 2024).

Test system: 292921-168-R-J2-PDC KRAS tumor spheroid viability
Assay: Anticancer human tumor 292921-168-R-J2-PDC patient-derived pancreatic carcinoma cell line growth inhibition [KRAS2]
Conditions: spheroids with HUVEC and MSC; for viability, T/C: stronger effect = lower value
In short: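 Combination screen of spheroid viability in tumor-cell co-cultures with endothelial (HUVEC) and mesenchymal stem cell stroma. Each agent was tested in half-log dilutions, topping at clinical Cmax or at 10 microM without a known Cmax.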

[1] = curve of first compound, second compound 0.1 µM
[2] = curve of first compound, second compound 0.316 µM
[3] = curve of first compound, second compound 1 µM
[4] = curve of first compound, second compound 3.16 µM
[5] = second compound 0.1 µM, first compound 0.01 µM
[6] = second compound 0.1 µM, first compound 0.0316 µM
[7] = second compound 0.1 µM, first compound 0.1 µM
[8] = second compound 0.1 µM, first compound 0.316 µM
[9] = second compound 0.1 µM, first compound 1 µM
[10] = second compound 0.316 µM, first compound 0.01 µM
[11] = second compound 0.316 µM, first compound 0.0316 µM
[12] = second compound 0.316 µM, first compound 0.1 µM
[13] = second compound 0.316 µM, first compound 0.316 µM
[14] = second compound 0.316 µM, first compound 1 µM
[15] = second compound 1 µM, first compound 0.01 µM
[16] = second compound 1 µM, first compound 0.0316 µM
[17] = second compound 1 µM, first compound 0.1 µM
[18] = second compound 1 µM, first compound 0.316 µM
[19] = second compound 1 µM, first compound 1 µM
[20] = second compound 3.16 µM, first compound 0.01 µM
[21] = second compound 3.16 µM, first compound 0.0316 µM
[22] = second compound 3.16 µM, first compound 0.1 µM
[23] = second compound 3.16 µM, first compound 0.316 µM
[24] = second compound 3.16 µM, first compound 1 µM
[25] = curve of first compound, second compound 0.0316 µM
[26] = second compound 0.0316 µM, first compound 0.0316 µM
[27] = second compound 0.0316 µM, first compound 0.1 µM
[28] = second compound 0.0316 µM, first compound 0.316 µM
[29] = second compound 0.0316 µM, first compound 1 µM
[30] = second compound 0.0316 µM, first compound 3.16 µM
[31] = second compound 0.0316 µM, first compound 10 µM
[32] = second compound 0.1 µM, first compound 3.16 µM
[33] = second compound 0.1 µM, first compound 10 µM
[34] = second compound 0.316 µM, first compound 3.16 µM
[35] = second compound 0.316 µM, first compound 10 µM
[36] = second compound 1 µM, first compound 3.16 µM
[37] = second compound 1 µM, first compound 10 µM
[38] = second compound 3.16 µM, first compound 3.16 µM
[39] = second compound 3.16 µM, first compound 10 µM
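Note: drug exposure lasted seven days after spheroids formed for three days.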
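Throughout, for viability, T/C: percent of DMSO vehicle control viability which is 100%.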

Row | SMILES | IC50 [1] [µM] | IC50 [2] [µM] | IC50 [3] [µM] | IC50 [4] [µM] | viability, T/C [6] [%] | viability, T/C [7] [%] | viability, T/C [8] [%] | viability, T/C [9] [%] | viability, T/C [11] [%] | viability, T/C [12] [%] | viability, T/C [13] [%] | viability, T/C [14] [%] | viability, T/C [16] [%] | viability, T/C [17] [%] | viability, T/C [18] [%] | viability, T/C [19] [%] | viability, T/C [21] [%] | viability, T/C [22] [%] | viability, T/C [23] [%] | viability, T/C [24] [%] | also measured
1 | CCN1CCN(Cc2ccc(Nc3ncc(F)c(-c4cc(F)c5nc(C)n(C(C)C)c5c4)n3)nc2)CC1 + CNCc1ccccc1-c1csc(C(C)Nc2nc(C)nc3cc(OC)c(OC)cc23)c1 | 0.0198 | 0.0161 | 0.00444 | < 0.00316 | 42 | 30.9 | 24.8 | 19.1 | 37.1 | 31.8 | 23.6 | 12.3 | 28.6 | 22.3 | 21.3 | 0.5 | 0.04 | 0.05 | 0.1 | 0.1 | IC50 (curve of first compound, second compound 10 µM): < 0.00316 µM; viability, T/C (second compound 0.1 µM, first compound 0.00316 µM): 76.5%; viability, T/C [5]: 60.9%; viability, T/C (second compound 0.316 µM, first compound 0.00316 µM): 73.2%; viability, T/C [10]: 57.4%; viability, T/C (second compound 1 µM, first compound 0.00316 µM): 54.3%; viability, T/C [15]: 42.6%; viability, T/C (second compound 3.16 µM, first compound 0.00316 µM): 0.12%; viability, T/C [20]: 0.07%; viability, T/C (second compound 10 µM, first compound 0.00316 µM): 0.11%; viability, T/C (second compound 10 µM, first compound 0.01 µM): 0.11%; viability, T/C (second compound 10 µM, first compound 0.0316 µM): 0.08%; viability, T/C (second compound 10 µM, first compound 0.1 µM): 0.08%; viability, T/C (second compound 10 µM, first compound 0.316 µM): 0.08%; viability, T/C (second compound 10 µM, first compound 1 µM): 0.13%
2 | O=C(c1cc(Cc2n[nH]c(=O)c3ccccc23)ccc1F)N1CCN(C(=O)C2CC2)CC1 + C=CC(=O)N1CCN(c2nc(OCC3CCCN3C)nc3c2CCN(c2cccc4cccc(C)c24)C3)CC1CC#N | 6.11 | 3.56 | < 0.0316 | < 0.0316 | 88.3 | 68.2 | 84.5 | 75.6 | 50.5 | 56.1 | 55.2 | 62.7 | 42.9 | 43.5 | 38.1 | 34.3 | 0.21 | 0.17 | 0.19 | 0.49 | IC50 [25]: 5.67 µM; viability, T/C [26]: 102%; viability, T/C [27]: 101%; viability, T/C [28]: 102%; viability, T/C [29]: 85.1%; viability, T/C [30]: 62%; viability, T/C [31]: 38.8%; viability, T/C [32]: 68.5%; viability, T/C [33]: 36.3%; viability, T/C [34]: 50.2%; viability, T/C [35]: 30.8%; viability, T/C [36]: 43.3%; viability, T/C [37]: 19.7%; viability, T/C [38]: 0.32%; viability, T/C [39]: 0.25%
3 | CCNC(=O)CC1N=C(c2ccc(Cl)cc2)c2cc(OC)ccc2-n2c(C)nnc21 (configuration not stated) + C=CC(=O)N1CCN(c2nc(OCC3CCCN3C)nc3c2CCN(c2cccc4cccc(C)c24)C3)CC1CC#N | 1.23 | 0.644 | < 0.0316 | < 0.0316 | 94 | 90.2 | 59.1 | 53.7 | 106 | 92.2 | 59.2 | 45.1 | 42.4 | 33 | 26.1 | 18.4 | 0.21 | 0.11 | 0.1 | 0.1 | IC50 [25]: > 10 µM; viability, T/C [26]: 104%; viability, T/C [27]: 99.5%; viability, T/C [28]: 69.9%; viability, T/C [29]: 63.6%; viability, T/C [30]: 53.9%; viability, T/C [31]: 49.2%; viability, T/C [32]: 48%; viability, T/C [33]: 34.3%; viability, T/C [34]: 34.2%; viability, T/C [35]: 29.2%; viability, T/C [36]: 13.7%; viability, T/C [37]: 8.19%; viability, T/C [38]: 0.1%; viability, T/C [39]: 0.26%
4 | COc1cc(OC)cc(N(CCNC(C)C)c2ccc3ncc(-c4cnn(C)c4)nc3c2)c1 |  |  |  |  |  |  |  |  |  |  |  |  |  |  |  |  |  |  |  |  | viability, T/C (compound 0.0316 µM): 72.9% [middle of 5 runs]; viability, T/C (compound 0.1 µM): 77.1% [middle of 5 runs]; viability, T/C (compound 0.316 µM): 77.7% [middle of 5 runs]; viability, T/C (compound 1 µM): 69.4% [middle of 5 runs]; viability, T/C (compound 3.16 µM): 45.9% [middle of 5 runs]; viability, T/C (compound 10 µM): 0.9% [middle of 5 runs]; IC50 (curve of compound): 2.48 µM [middle of 5 runs]
5 | CC1COCCN1c1cc(-c2ccnn2C)c2ccnc(-c3ccn[nH]3)c2n1 (configuration not stated) + C=CC(=O)N1CCN(c2nc(OCC3CCCN3C)nc3c2CCN(c2cccc4cccc(C)c24)C3)CC1CC#N | < 0.01 | < 0.01 | < 0.01 | < 0.01 | 14 | 9.02 | 9.07 | 11 | 11 | 7.47 | 8.07 | 9.3 | 6.29 | 5.9 | 6.42 | 6.98 | 0.09 | 0.08 | 0.09 | 0.27 | IC50 [25]: < 0.01 µM; viability, T/C (second compound 0.0316 µM, first compound 0.01 µM): 38.6%; viability, T/C [26]: 16.4%; viability, T/C [27]: 11.5%; viability, T/C [28]: 10%; viability, T/C [29]: 11.9%; viability, T/C [30]: 12.6%; viability, T/C [5]: 33.6%; viability, T/C [32]: 11.7%; viability, T/C [10]: 22.6%; viability, T/C [34]: 10.8%; viability, T/C [15]: 8.66%; viability, T/C [36]: 7.65%; viability, T/C [20]: 0.1%; viability, T/C [38]: 0.15%
